Data reported in ChEMBL document CHEMBL1150213, “Protein-tyrosine kinase inhibition: mechanism-based discovery of antitumor agents” (J Nat Prod, 1992).
≈ marks a conversion by molar mass, not a printed value. Where a SMILES comes first, the peptide text is derived from it. The star is where a group is joined. CH2Cl = ClC*

What was measured:
[1] = target: T1, Tyrosine-protein kinase transforming protein Abl (Abelson murine leukemia virus, UniProt P00521)
T1 sequence (P00521 whole entry): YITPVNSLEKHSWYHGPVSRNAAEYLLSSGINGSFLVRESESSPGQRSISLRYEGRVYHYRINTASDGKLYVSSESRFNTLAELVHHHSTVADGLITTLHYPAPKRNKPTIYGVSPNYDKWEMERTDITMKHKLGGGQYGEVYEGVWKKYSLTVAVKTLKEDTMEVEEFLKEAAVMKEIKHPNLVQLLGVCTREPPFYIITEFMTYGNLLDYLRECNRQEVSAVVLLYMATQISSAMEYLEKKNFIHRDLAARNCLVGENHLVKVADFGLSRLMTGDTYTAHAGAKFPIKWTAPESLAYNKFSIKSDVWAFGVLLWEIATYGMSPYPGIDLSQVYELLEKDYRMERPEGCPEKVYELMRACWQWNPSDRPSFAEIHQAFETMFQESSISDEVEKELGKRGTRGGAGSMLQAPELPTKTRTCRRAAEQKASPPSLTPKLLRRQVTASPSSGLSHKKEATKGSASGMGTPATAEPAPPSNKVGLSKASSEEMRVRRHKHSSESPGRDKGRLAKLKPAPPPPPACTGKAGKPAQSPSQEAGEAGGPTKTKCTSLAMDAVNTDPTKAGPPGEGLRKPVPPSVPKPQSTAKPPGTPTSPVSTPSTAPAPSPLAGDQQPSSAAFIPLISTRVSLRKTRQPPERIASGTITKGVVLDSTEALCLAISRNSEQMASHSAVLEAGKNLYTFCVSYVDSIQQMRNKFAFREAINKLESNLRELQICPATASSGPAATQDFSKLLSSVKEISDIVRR
Description: Inhibition of Abelson murine leukemia virus p60 v-abl

[2] = target: T2, Epidermal growth factor receptor (Homo sapiens, UniProt P00533)
T2 sequence (P00533 whole entry): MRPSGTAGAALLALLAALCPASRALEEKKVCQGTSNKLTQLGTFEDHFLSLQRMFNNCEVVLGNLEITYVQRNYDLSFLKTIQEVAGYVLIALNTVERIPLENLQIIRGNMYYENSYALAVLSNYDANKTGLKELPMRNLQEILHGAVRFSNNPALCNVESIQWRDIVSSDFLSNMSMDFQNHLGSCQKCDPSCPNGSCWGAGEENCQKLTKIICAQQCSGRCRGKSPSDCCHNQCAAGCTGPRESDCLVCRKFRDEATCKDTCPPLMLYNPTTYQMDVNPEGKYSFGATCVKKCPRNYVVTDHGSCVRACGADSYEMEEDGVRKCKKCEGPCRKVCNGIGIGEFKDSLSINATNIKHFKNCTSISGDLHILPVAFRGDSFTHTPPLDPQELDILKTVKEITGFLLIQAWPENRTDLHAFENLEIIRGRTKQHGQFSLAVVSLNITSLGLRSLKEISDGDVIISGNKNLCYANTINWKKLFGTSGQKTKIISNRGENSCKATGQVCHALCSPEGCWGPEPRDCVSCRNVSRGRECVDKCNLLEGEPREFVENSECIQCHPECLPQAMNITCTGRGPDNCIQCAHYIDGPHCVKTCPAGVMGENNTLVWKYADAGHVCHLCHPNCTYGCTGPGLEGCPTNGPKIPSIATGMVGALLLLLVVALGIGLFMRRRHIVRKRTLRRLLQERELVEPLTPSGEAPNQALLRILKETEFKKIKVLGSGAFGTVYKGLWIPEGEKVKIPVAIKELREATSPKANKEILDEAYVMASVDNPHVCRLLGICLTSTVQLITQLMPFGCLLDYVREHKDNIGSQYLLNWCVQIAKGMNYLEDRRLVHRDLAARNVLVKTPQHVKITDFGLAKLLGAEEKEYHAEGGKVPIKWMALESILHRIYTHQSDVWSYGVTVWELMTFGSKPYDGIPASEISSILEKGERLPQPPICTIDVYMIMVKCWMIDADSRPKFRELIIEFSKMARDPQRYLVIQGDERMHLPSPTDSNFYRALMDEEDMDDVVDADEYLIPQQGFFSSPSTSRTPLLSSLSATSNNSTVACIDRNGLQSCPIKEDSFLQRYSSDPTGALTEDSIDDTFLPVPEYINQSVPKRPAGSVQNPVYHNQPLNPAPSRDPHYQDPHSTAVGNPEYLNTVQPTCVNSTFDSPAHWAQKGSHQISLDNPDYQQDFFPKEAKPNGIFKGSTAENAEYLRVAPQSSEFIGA

[3] = target: T2, Epidermal growth factor receptor; assay: Inhibition of EGFR in human A431 cells at 400 nmol/mg protein in absence of EGF; assay type: cell-based; conditions: A-431
[4] = target: T2, Epidermal growth factor receptor; assay: Inhibition of EGFR in human A431 cells at 400 nmol/mg protein in presence of EGF; assay type: cell-based; conditions: A-431
[5] = Inhibition of p40 tyrosine kinase
[6] = target: T2, Epidermal growth factor receptor; remark: listed apart in the source

Compound: CS(=O)(=O)c1ccc(C(=O)OC[C@H]2O[C@@H](n3cnc4c(N)ncnc43)[C@H](O)[C@@H]2O)cc1
- IC50 [1]: 60 µM

Compound: CCCCNC(=O)c1ccc(S(=O)(=O)Oc2ccc(/C=C/[N+](=O)[O-])cc2)cc1
- IC50 [1]: > 100 µM
- IC50 [2]: 5 µM

Compound: CC(=O)N[C@@H](C)C(=O)N[C@@H](C)C(=O)N[C@@H](Cc1ccccc1)C(=O)N[C@H](C(=O)CCl)[C@@H](C)O (Ac-AAFT-CH2Cl)
- inhibition [3]: 4%
- inhibition [4]: 10%

Compound: O=C(O)/C=C/c1ccc(O)cc1 [COUMARIC ACID]
- IC50 [5]: > 300 µg/mL

Compound: O=C(O)c1ccc(S(=O)(=O)Oc2ccc(/C=C/[N+](=O)[O-])cc2)cc1O
- IC50 [1]: 30 µM
- IC50 [2]: 0.05 µM

Compound: Cc1ccc(NP(=O)(O)OP(=O)(O)OP(=O)(O)OC[C@H]2O[C@@H](n3cnc4c(N)ncnc43)[C@H](O)[C@@H]2O)cc1
- IC50 [1]: 200 µM

Compound: CC(=O)NC(Cc1ccc(OS(=O)(=O)c2ccc(C(=O)OC[C@H]3O[C@@H](n4cnc5c(N)ncnc54)[C@H](O)[C@@H]3O)cc2)cc1)C(N)=O (stereo partly specified)
- IC50 [1]: 100 µM

Compound: O=C1C[C@@H](c2ccc(O)cc2)Oc2cc(O)cc(O)c21 [NARINGENIN]
- IC50 [5]: 8 ×10¹ ug/ml

Compound: COC(=O)c1ccc(S(=O)(=O)Oc2ccc(/C=C/[N+](=O)[O-])cc2)cc1
- IC50 [1]: > 100 µM
- IC50 [2]: 2 µM

Compound: Nc1ncnc2c1ncn2[C@@H]1O[C@H](COC(=O)c2ccc(S(=O)(=O)Oc3ccccc3)cc2)[C@@H](O)[C@H]1O
- IC50 [1]: 200 µM

Compound: Nc1ncnc2c1ncn2[C@@H]1O[C@H](COP(=O)(O)OP(=O)(O)OP(=O)(O)Oc2ccccc2)[C@@H](O)[C@H]1O
- IC50 [1]: 10 µM

Compound: CC(=O)NCCNP(=O)(O)OP(=O)(O)OP(=O)(O)OC[C@H]1O[C@@H](n2cnc3c(N)ncnc32)[C@H](O)[C@@H]1O
- IC50 [1]: 30 µM

Compound: CC(C)C[C@H](NC(=O)OCc1ccccc1)C(=O)C=[N+]=[N-]
- inhibition [3]: 15%
- inhibition [4]: 18%

Compound: Nc1ncnc2c1ncn2[C@@H]1O[C@H](COC(=O)c2ccc(S(=O)(=O)NCCCc3ccccc3)cc2)[C@@H](O)[C@H]1O
- IC50 [1]: 60 µM

Compound: Oc1cc(O)cc(/C=C/c2ccc(O)c(O)c2)c1 [PICEATANNOL]
- IC50 [5]: 4 µg/mL (≈ 16.4 µM)

Compound: COc1ccc(NP(=O)(O)OP(=O)(O)OP(=O)(O)OC[C@H]2O[C@@H](n3cnc4c(N)ncnc43)[C@H](O)[C@@H]2O)cc1
- IC50 [1]: 90 µM

Compound: C[C@H](NC(=O)c1ccc(S(=O)(=O)Oc2ccc(/C=C/[N+](=O)[O-])cc2)cc1)C(=O)N[C@@H](C)C(=O)OC(C)(C)C
- IC50 [1]: 100 µM

Compound: Cc1ccc(NP(=O)(O)OP(=O)(O)OP(=O)(O)OP(=O)(O)OC[C@H]2O[C@@H](n3cnc4c(N)ncnc43)[C@H](O)[C@@H]2O)cc1
- IC50 [1]: 20 µM

Compound: O=C(CCl)[C@H](Cc1ccccc1)NOCc1ccccc1
- inhibition [3]: 21%
- inhibition [4]: 15%

Compound: CCOC(=O)c1oc2cc(O)cc(O)c2c(=O)c1-c1ccc(O)cc1
- IC50 [6]: 5.84 µM

Compound: COC(=O)c1ccc(S(=O)(=O)Oc2ccc(/C=C/[N+](=O)[O-])cc2)cc1O
- IC50 [1]: > 100 µM
- IC50 [2]: 2 µM

Compound: CC(C)NC(=O)c1ccc(S(=O)(=O)Oc2ccc(/C=C/[N+](=O)[O-])cc2)cc1
- IC50 [1]: > 100 µM
- IC50 [2]: 1 µM

Compound: Nc1ncnc2c1ncn2[C@@H]1O[C@H](COC(=O)c2ccc(S(=O)(=O)NCc3ccccc3)cc2)[C@@H](O)[C@H]1O
- IC50 [1]: 50 µM

Compound: CCOc1cc(/C=C2/CCNC2=O)cc(CSc2ccccc2)c1O
- IC50 [6]: 0.9 µM

Compound: CCOc1cc(/C=C(\C#N)C(N)=O)cc(CSc2ccc(O)cc2)c1O
- IC50 [6]: 3 µM

Compound: N#C/C(=C\c1cc(CSc2ccccc2)c(O)c(OCc2ccccc2)c1)C(N)=O
- IC50 [6]: 0.8 µM

Compound: CC(=O)NCC(=O)NCC(=O)N[C@@H](C)C(=O)N[C@@H](Cc1ccccc1)C(=O)CCl (Ac-GGAF-CH2Cl)
- inhibition [3]: 5%
- inhibition [4]: 0%

Compound: CSCc1oc2cc(O)cc(O)c2c(=O)c1-c1ccc(O)cc1
- IC50 [6]: 15.1 µM

Compound: NCCNC(=O)c1ccc(S(=O)(=O)Oc2ccc(/C=C/[N+](=O)[O-])cc2)cc1
- IC50 [1]: > 5 µM
- IC50 [2]: 5 µM

Compound: O=C1C[C@@H](c2ccccc2)Oc2cc(O)cc(O)c21 [PINOCEMBRIN]
- IC50 [5]: > 5 ×10² ug/ml

Compound: O=CN/C=C/c1ccc(O)cc1
- IC50 [6]: > 61.3 µM

Compound: CC(=O)N[C@@H](Cc1ccccc1)C(=O)NCC(=O)N[C@@H](C)C(=O)N[C@@H](CC(C)C)C(=O)CCl (Ac-FGAL-CH2Cl)
- inhibition [3]: 59%
- inhibition [4]: 29%

Compound: CC(=O)N/C=C/c1cc(O)ccc1O
- IC50 [6]: 15.5 µM

Compound: N#CC(C#N)=C1C(=O)Nc2ccc(O)cc21
- IC50 [6]: 10 µM

Compound: C[C@H](NC(=O)[C@H](C)NC(=O)c1ccc(S(=O)(=O)Oc2ccc(/C=C/[N+](=O)[O-])cc2)cc1)C(=O)O
- IC50 [1]: 40 µM
